Reference: patent publication US20180237713A1, “Ionic Liquid, Lubricant, and Magnetic Recording Medium” (priority 2015, published 2018)

Test: Thermal stability measurement (TG/DTA weight reduction temperature)
Conditions: for Weight reduction temperature 5% / Weight reduction temperature 10% / Weight reduction temperature 20%: TG/DTA, air 200 mL/min, 10° C./min, 30° C. to 600° C.; for 5%, 10%, 20% weight reduction temperatures (thermal stability) higher than perfluoropolyether Z-DOL (Comparative Example 11C) by: difference to Z-DOL; for 5%, 10%, 20% weight reduction temperatures (thermal stability) higher than Z-TETRAOL (Comparative Example 12C) by: difference to Z-TETRAOL

Row | Compound | Weight reduction temperature 5% | Weight reduction temperature 10% | Weight reduction temperature 20% | 5%, 10%, 20% weight reduction temperatures (thermal stability) higher than perfluoropolyether Z-DOL (Comparative Example 11C) by | 5%, 10%, 20% weight reduction temperatures (thermal stability) higher than Z-TETRAOL (Comparative Example 12C) by | Thermal stability compared to perfluoropolyether Z-DOL or Z-TETRAOL
1 | CCCCCCCCCCCCCCCCCCn1cc[n+](CCC[n+]2ccn(CCCCCCCCCCCCCCCCCC)c2)c1.O=S(=O)([N-]S(=O)(=O)C(F)(F)C(F)(F)C(F)(F)C(F)(F)F)C(F)(F)C(F)(F)C(F)(F)C(F)(F)F.O=S(=O)([N-]S(=O)(=O)C(F)(F)C(F)(F)C(F)(F)C(F)(F)F)C(F)(F)C(F)(F)C(F)(F)C(F)(F)F | 352.3 °C | 381.9 °C | 401.4 °C |  |  | 
2 | CCCCCCCCCCCCCCCCCCn1cc[n+](CCCCC[n+]2ccn(CCCCCCCCCCCCCCCCCC)c2)c1.O=S(=O)([N-]S(=O)(=O)C(F)(F)C(F)(F)C(F)(F)C(F)(F)F)C(F)(F)C(F)(F)C(F)(F)C(F)(F)F.O=S(=O)([N-]S(=O)(=O)C(F)(F)C(F)(F)C(F)(F)C(F)(F)F)C(F)(F)C(F)(F)C(F)(F)C(F)(F)F | 360.1 °C | 384.4 °C | 402.0 °C | ≥ 170 °C | ≥ 120 °C | 
3 | CCCCCCCCCCCCCCCCCCn1cc[n+](CCCCCCCCC[n+]2ccn(CCCCCCCCCCCCCCCCCC)c2)c1.O=S(=O)([N-]S(=O)(=O)C(F)(F)C(F)(F)C(F)(F)C(F)(F)F)C(F)(F)C(F)(F)C(F)(F)C(F)(F)F.O=S(=O)([N-]S(=O)(=O)C(F)(F)C(F)(F)C(F)(F)C(F)(F)F)C(F)(F)C(F)(F)C(F)(F)C(F)(F)F |  |  |  | ≥ 170 °C | ≥ 110 °C | 
4 | C[n+]1ccn(CCC(F)(F)C(F)(F)C(F)(F)C(F)(F)C(F)(F)C(F)(F)C(F)(F)C(F)(F)F)c1.O=S(=O)([N-]S(=O)(=O)C(F)(F)C(F)(F)C(F)(F)C(F)(F)F)C(F)(F)C(F)(F)C(F)(F)C(F)(F)F |  |  |  | ≥ 150 °C | ≥ 90 °C | 
5 | CCCCCCCCCCCCCCCCCC[n+]1ccn(CCC(F)(F)C(F)(F)C(F)(F)C(F)(F)C(F)(F)C(F)(F)C(F)(F)C(F)(F)F)c1.O=S(=O)([N-]S(=O)(=O)C(F)(F)C(F)(F)C(F)(F)C(F)(F)F)C(F)(F)C(F)(F)C(F)(F)C(F)(F)F |  |  |  | ≥ 150 °C | ≥ 90 °C | 
6 | CCCCCCCCCCCCCCCCCC[n+]1ccn(CCCC)c1.O=S(=O)([N-]S(=O)(=O)C(F)(F)C(F)(F)C(F)(F)C(F)(F)F)C(F)(F)C(F)(F)C(F)(F)C(F)(F)F |  |  |  |  |  | high
7 | CCCCCCCCCCCCCCCCCCC1CCCCN2CCCN=C12.O=S(=O)(NS(=O)(=O)C(F)(F)C(F)(F)C(F)(F)C(F)(F)F)C(F)(F)C(F)(F)C(F)(F)C(F)(F)F | 352.9 °C | 378.2 °C | 396.7 °C | ≥ 100 °C | ≥ 50 °C | 
8 | CCCCCCCCCCCCCCCCCCC1CCCCN2CCCN=C12.O=S1(=O)NS(=O)(=O)C(F)(F)C(F)(F)C1(F)F (stereo not shown) |  |  |  |  |  | high
9 | CCCCCCCCCCCCCCCCCCN1CCCN2CCCN=C12.O=S1(=O)NS(=O)(=O)C(F)(F)C(F)(F)C1(F)F |  |  |  |  |  | high
10 | CCCCCCCCCCCCCCCCCCN1CCCC1.O=S1(=O)NS(=O)(=O)C(F)(F)C(F)(F)C1(F)F |  |  |  |  |  | high
11 | CCCCCCCCCCCCCCCCCC[N+]1=C2CCCCCN2CCC1.O=S(=O)([O-])C(F)(F)F | 319.2 °C | 346.6 °C | 389.0 °C | ≥ 140 °C | ≥ 80 °C | 
